Test results as given in US9255101B2 (BIOPROJECT, priority 2012, dated 2016).
Where a name gives a salt, the structure may show the parent alone.

Key:
human H4 receptor [1] = target: T1, human H4 receptor (Homo sapiens, UniProt Q9H3N8); experiment: biochemical
human H4 receptor [2] = target: T1, human H4 receptor; experiment: biochemical; remark: listed apart in the source
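Throughout, for IC50: membranes from SH-SY5Y cells with stable human H4 receptor expression, incubated with GDP 10 µM, radioactivity retained on filters counted by liquid scintillation.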
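Throughout, for Ki: radioligand displacement of a [3H]-labelled ligand from membranes of CHO cells stably expressing human H4 receptor, bound radioactivity counted on filters by liquid scintillation.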

IC50 (human H4 receptor [1]) [nM] | Ki (human H4 receptor [2]) [nM] | SMILES
< 30 | < 30 | CN1CCC(OC2c3ccccc3CCn3cc(CCCCc4ccccc4)nc32)CC1 (centres unmarked) [Example 129, 4-(1-methylpiperidin-4-yloxy)-2-(4-phenylbutyl)-9,10-dihydro-4H-3,10a-diaza-benzo[f]azulene oxalate]
< 300 | < 300 | C=C(C)Cc1nc2n(c1C#N)CCc1ccccc1C2OC1CCN(C)CC1 (centres unmarked) [Example 259, 2-(2-methylallyl)-4-(1-methylpiperidin-4-yloxy)-9,10-dihydro-4H-3,10a-diaza-benzo[f]azulene-1-carbonitrile]
< 300 | < 30 | CN1CCC(OC2c3ccccc3CCn3cc(-c4cccc(Cl)c4)nc32)CC1 (centres unmarked) [Example 77, 2-(3-chlorophenyl)-4-(1-methylpiperidin-4-yloxy)-9,10-dihydro-4H-3,10a-diaza-benzo[f]azulene oxalate]
< 30 | < 30 | Cc1c(-c2ccc(SCc3ccco3)cc2)nc2n1CCc1ccccc1C2OC1CCN(C)CC1 (centres unmarked) [Example 167, 2-[4-(furan-2-ylmethylsulfanyl)-phenyl]-1-methyl-4-(1-methylpiperidin-4-yloxy)-9,10-dihydro-4H-3,10a-diaza-benzo[f]azulene oxalate]
< 300 | < 300 | Cc1cccc(-c2cn3c(n2)C(OC2CCN(C)CC2)c2ccccc2CC3)c1 (centres unmarked) [Example 6, 4-(1-methyl-piperidin-4-yloxy)-2-m-tolyl-9,10-dihydro-4H-3,10a-diaza-benzo[f]azulene]
< 1000 | < 300 | CN1CCC(OC2c3ccccc3CCn3cc(SCc4cccs4)nc32)CC1 (centres unmarked) [Example 88, 4-(1-methylpiperidin-4-yloxy)-2-(thiophen-2-ylmethylsulfanyl)-9,10-dihydro-4H-3,10a-diaza-benzo[f]azulene oxalate]
< 30 | < 300 | Cc1ccc(-c2cn3c(n2)C(OC2CCN(C)CC2)c2ccccc2CC3)c(Cl)c1 (centres unmarked) [Example 75, 2-(2-chloro-4-methylphenyl)-4-(1-methylpiperidin-4-yloxy)-9,10-dihydro-4H-3,10a-diaza-benzo[f]azulene oxalate]
< 30 | < 30 | CN1CCC(OC2c3ccccc3CCn3cc(-c4ccc(N(C)C(=O)OC(C)(C)C)cc4)nc32)CC1 (centres unmarked) [Example 97, methyl-{4-[4-(1-methylpiperidin-4-yloxy)-9,10-dihydro-4H-3,10a-diaza-benzo[f]azulen-2-yl]-phenyl}-carbamic acid tert-butyl ester oxalate]
< 30 | < 30 | Cc1c(-c2ccc(SCCN)cc2)nc2n1CCc1ccccc1C2OC1CCN(C)CC1 (centres unmarked) [Example 161, 2-{4-[1-methyl-4-(1-methylpiperidin-4-yloxy)-9,10-dihydro-4H-3,10a-diaza-benzo[f]azulen-2-yl]-phenylsulfanyl}-ethylamine oxalate]
< 1000 | < 300 | CN1CCC(OC2c3ccccc3CCn3cc(C4=CCCC4)nc32)CC1 (centres unmarked) [Example 65, 2-cyclopent-1-enyl-4-(1-methylpiperidin-4-yloxy)-9,10-dihydro-4H-3,10a-diaza-benzo[f]azulene]
< 30 | < 30 | CN1CCC(OC2c3ccccc3CCn3c2nc(I)c3I)CC1 (centres unmarked) [Example 219, 1,2-diiodo-4-(1-methylpiperidin-4-yloxy)-9,10-dihydro-4H-3,10a-diaza-benzo[f]azulene]
< 30 | < 30 | CN1CCC(OC2c3ccccc3CCn3cc(-c4ccc(C(F)(F)F)cc4)nc32)CC1 (centres unmarked) [Example 25, 4-(1-methylpiperidin-4-yloxy)-2-(4-trifluoromethylphenyl)-9,10-dihydro-4H-3,10a-diaza-benzo[f]azulene]
< 30 | < 30 | Cc1c(C=CC(C)(C)C)nc2n1CCc1ccccc1C2OC1CCN(C)CC1 (centres unmarked) [Example 225, 2-(3,3-dimethyl-but-1-enyl)-1-methyl-4-(1-methylpiperidin-4-yloxy)-9,10-dihydro-4H-3,10a-diaza-benzo[f]azulene]
< 300 | < 300 | C=C(C)Cc1cn2c(n1)C(OC1CCN(C)CC1)c1ccccc1CC2 (centres unmarked) [Example 70, 2-(2-methyl-allyl)-4-(1-methylpiperidin-4-yloxy)-9,10-dihydro-4H-3,10a-diaza-benzo[f]azulene oxalate]
< 30 | < 30 | Cc1c(-c2ccc(Br)cc2)nc2n1CCc1ccccc1C2OC1CCN(C)CC1 (centres unmarked) [Example 122, 2-(4-bromophenyl)-1-methyl-4-(1-methylpiperidin-4-yloxy)-9,10-dihydro-4H-3,10a-diaza-benzo[f]azulene]
< 300 | < 300 | CN1CCC(OC2c3ccccc3CCn3cc(-c4ccc(CN5CCCCCC5=O)cc4)nc32)CC1 (centres unmarked) [Example 188, 1-{4-[4-(1-methylpiperidin-4-yloxy)-9,10-dihydro-4H-3,10a-diaza-benzo[f]azulen-2-yl]benzyl}-azepan-2-one]
< 30 | < 30 | CN1CCC(OC2c3ccccc3CCn3cc(-c4ccc(C#N)cc4)nc32)CC1 (centres unmarked) [Example 37, 4-[4-(1-methylpiperidin-4-yloxy)-9,10-dihydro-4H-3,10a-diaza-benzo[f]azulen-2-yl]-benzonitrile]

IC50 (human H4 receptor [1]) [nM] | Ki (human H4 receptor [2]) [nM] | SMILES
< 300 | < 300 | C=CCc1cn2c(n1)C(OC1CCN(C)CC1)c1ccccc1CC2 (centres unmarked) [Example 30, 2-allyl-4-(1-methylpiperidin-4-yloxy)-9,10-dihydro-4H-3,10a-diaza-benzo[f]azulene oxalate]
< 30 | < 30 | Cc1c(C2=CCCCC2)nc2n1CCc1ccccc1C2OC1CCN(C)CC1 (centres unmarked) [Example 226, 2-cyclohex-1-enyl-1-methyl-4-(1-methylpiperidin-4-yloxy)-9,10-dihydro-4H-3,10a-diaza-benzo[f]azulene]
< 300 | < 30 | CN1CCC(OC2c3ccccc3CCn3cc(-c4ccccc4Cl)nc32)CC1 (centres unmarked) [Example 26, 2-(2-chlorophenyl)-4-(1-methylpiperidin-4-yloxy)-9,10-dihydro-4H-3,10a-diaza-benzo[f]azulene oxalate]
< 30 | < 30 | CN1CCC(OC2c3ccccc3CCn3cc(CCC(C)(C)C)nc32)CC1 (centres unmarked) [Example 94, 2-(3,3-dimethylbutyl)-4-(1-methylpiperidin-4-yloxy)-9,10-dihydro-4H-3,10a-diaza-benzo[f]azulene]
< 30 | < 30 | Cc1c(-c2ccccc2)nc2n1CCc1ccccc1C2OC1CCN(C)CC1 (centres unmarked) [Example 103, 1-Methyl-4-(1-methyl-piperidin-4-yloxy)-2-phenyl-9,10-dihydro-4H-3,10a-diaza-benzo[f]azulene]
< 300 | < 300 | CCCCCCc1ccc(-c2cn3c(n2)C(OC2CCN(C)CC2)c2ccccc2CC3)cc1 (centres unmarked) [Example 43, 2-(4-hexylphenyl)-4-(1-methylpiperidin-4-yloxy)-9,10-dihydro-4H-3,10a-diaza-benzo[f]azulene]
< 30 | < 30 | CN1CCC(OC2c3ccccc3CCn3cc(-c4ccc(F)cc4)nc32)CC1 (centres unmarked) [Example 56, 2-(4-fluorophenyl)-4-(1-methylpiperidin-4-yloxy)-9,10-dihydro-4H-3,10a-diaza-benzo[f]azulene]
< 30 | < 30 | CN1CCC(OC2c3ccccc3CCn3cc(-c4ccc(C(=O)OC(C)(C)C)cc4)nc32)CC1 (centres unmarked) [Example 36, 4-[4-(1-methylpiperidin-4-yloxy)-9,10-dihydro-4H-3,10a-diaza-benzo[f]azulen-2-yl]-benzoic acid tert-butyl ester]
< 300 | < 30 | CCCc1ccc(-c2cn3c(n2)C(OC2CCN(C)CC2)c2ccccc2CC3)cc1 (centres unmarked) [Example 22, 4-(1-methylpiperidin-4-yloxy)-2-(4-propylphenyl)-9,10-dihydro-4H-3,10a-diaza-benzo[f]azulene]
< 30 | < 30 | CCCCCc1ccc(-c2cn3c(n2)C(OC2CCN(C)CC2)c2ccccc2CC3)cc1 (centres unmarked) [Example 42, 4-(1-methylpiperidin-4-yloxy)-2-(4-pentylphenyl)-9,10-dihydro-4H-3,10a-diaza-benzo[f]azulene]
< 30 | < 300 | CN1CCC(OC2c3ccccc3CCn3cc(-c4ccc(C(C)(F)F)cc4)nc32)CC1 (centres unmarked) [Example 64, 2-[4-(1,1-difluoroethyl)-phenyl]-4-(1-methylpiperidin-4-yloxy)-9,10-dihydro-4H-3,10a-diaza-benzo[f]azulene oxalate]
< 30 | < 30 | CSc1ccc(-c2cn3c(n2)C(OC2CCN(C)CC2)c2ccccc2CC3)cc1 (centres unmarked) [Example 20, 4-(1-methylpiperidin-4-yloxy)-2-(4-methylsulfanylphenyl)-9,10-dihydro-4H-3,10a-diaza-benzo[f]azulene]
< 30 | < 30 | CN1CCC(OC2c3ccccc3CCn3c2nc(-c2ccccc2)c3Cl)CC1 (centres unmarked) [Example 134, 1-chloro-4-(1-methylpiperidin-4-yloxy)-2-phenyl-9,10-dihydro-4H-3,10a-diaza-benzo[f]azulene]
< 30 | < 30 | Cc1c(-c2ccc(NC(=O)OC(C)(C)C)cc2)nc2n1CCc1ccccc1C2OC1CCN(C)CC1 (centres unmarked) [Example 130, {4-[1-methyl-4-(1-methylpiperidin-4-yloxy)-9,10-dihydro-4H-3,10a-diaza-benzo[f]azulen-2-yl]-phenyl}-carbamic acid tert-butyl ester]
< 30 | < 30 | CCc1c(-c2ccccc2)nc2n1CCc1ccccc1C2OC1CCN(C)CC1 (centres unmarked) [Example 120, 1-ethyl-4-(1-methylpiperidin-4-yloxy)-2-phenyl-9,10-dihydro-4H-3,10a-diaza-benzo[f]azulene oxalate]
< 30 | < 300 | CN1CCC(OC2c3ccccc3CCn3cc(CCc4ccccc4)nc32)CC1 (centres unmarked) [Example 38, 4-(1-methylpiperidin-4-yloxy)-2-phenethyl-9,10-dihydro-4H-3,10a-diaza-benzo[f]azulene oxalate]
< 300 | < 30 | CC(=O)c1ccc(-c2cn3c(n2)C(OC2CCN(C)CC2)c2ccccc2CC3)cc1 (centres unmarked) [Example 11, 1-{4-[4-(1-methylpiperidin-4-yloxy)-9,10-dihydro-4H-3,10a-diaza-benzo[f]azulen-2-yl]-phenyl}ethanone]
